Results reported in the supplement of paper PMC6045584.
± gives the standard deviation of the averaged measurements.

Key:
[1] = compound: Cn1cc(C2=Nc3cc(NC(=O)C(N)C4CCCCC4)cc4c3C2=CNNC4=O)cn1; assay: area under dose-response curve of surviving fraction (unscaled, Aref=0) (surviving fraction x log10(nM)); higher = more resistant; conditions: exposure time: 5 days; dose range 0.5-1000 nM
Summary of the method: (§1)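 Inhibitor was applied to tumour cell lines at eight concentrations (0.5 to 1000 nM) for five days in 384-well plates. Luminescence from CellTiter-Glo, scaled to DMSO-only wells, gave surviving fractions in three screens per line, and these were fitted by 3-parameter logistic regression with the drc R package. The area under the curve is an unscaled activity area. Aref was 0, and dose was on a log10 scale.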

CANERTINIB [2] = compound: T1, C=CC(=O)Nc1cc2c(Nc3ccc(F)c(Cl)c3)ncnc2cc1OCCCN1CCOCC1 [CANERTINIB]; assay: as above; conditions: exposure time: 5 days; dose range 0.5-1000 nM
Summary of the method: as §1

MDV3100 [3] = compound: T2, CNC(=O)c1ccc(N2C(=S)N(c3ccc(C#N)c(C(F)(F)F)c3)C(=O)C2(C)C)cc1F [MDV3100]; assay: as above; conditions: exposure time: 5 days; dose range 0.5-1000 nM
Summary of the method: as §1

AFATINIB [4] = compound: T3, CN(C)C/C=C/C(=O)Nc1cc2c(Nc3ccc(F)c(Cl)c3)ncnc2cc1O[C@H]1CCOC1 [AFATINIB]; assay: as above; conditions: exposure time: 5 days; dose range 0.5-1000 nM
Summary of the method: as §1

SAPACITABINE [5] = compound: T4, CCCCCCCCCCCCCCCC(=O)Nc1ccn([C@@H]2O[C@H](CO)[C@@H](O)[C@@H]2C#N)c(=O)n1 [SAPACITABINE]; assay: as above; conditions: exposure time: 5 days; dose range 0.5-1000 nM
Summary of the method: as §1

SNX-5422 [6] = compound: T5, CC1(C)CC(=O)c2c(C(F)(F)F)nn(-c3ccc(C(N)=O)c(N[C@H]4CC[C@H](OC(=O)CN)CC4)c3)c2C1 [SNX-5422]; assay: as above; conditions: exposure time: 5 days; dose range 0.5-1000 nM
Summary of the method: as §1

BI-2536 [7] = compound: T6, CC[C@@H]1C(=O)N(C)c2cnc(Nc3ccc(C(=O)NC4CCN(C)CC4)cc3OC)nc2N1C1CCCC1 [BI-2536]; assay: as above; conditions: exposure time: 5 days; dose range 0.5-1000 nM
Summary of the method: as §1

TIOGUANINE [8] = compound: T7, Nc1nc2[nH]cnc2c(=S)[nH]1 [TIOGUANINE]; assay: as above; conditions: exposure time: 5 days; dose range 0.5-1000 nM
Summary of the method: as §1

[9] = compound: Cn1cc(C2=Nc3cc(NC(=O)C(N)C4CCCCC4)cc4c3C2=CNNC4=O)cn1; assay: surviving fraction relative to DMSO-only wells; higher = less growth inhibition; conditions: exposure time: 5 days
Summary of the method: (§2)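 After seeding at 250–500 cells per well in 384-well plates and a 24-hour wait, log-phase tumour cell lines were exposed without interruption for five days to inhibitors at 0.5, 1, 5, 10, 50, 100, 500 and 1000 nM. CellTiter-Glo luminescence was recorded after 10 minutes at room temperature. Viability is reported as surviving fraction, the luminescence normalised to the median of DMSO-only wells.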

CANERTINIB [10] = compound: T1, CANERTINIB; assay: as above; conditions: exposure time: 5 days
Summary of the method: as §2

MDV3100 [11] = compound: T2, MDV3100; assay: as above; conditions: exposure time: 5 days
Summary of the method: as §2

AFATINIB [12] = compound: T3, AFATINIB; assay: as above; conditions: exposure time: 5 days
Summary of the method: as §2

SAPACITABINE [13] = compound: T4, SAPACITABINE; assay: as above; conditions: exposure time: 5 days
Summary of the method: as §2

SNX-5422 [14] = compound: T5, SNX-5422; assay: as above; conditions: exposure time: 5 days
Summary of the method: as §2

BI-2536 [15] = compound: T6, BI-2536; assay: as above; conditions: exposure time: 5 days
Summary of the method: as §2

TIOGUANINE [16] = compound: T7, TIOGUANINE; assay: as above; conditions: exposure time: 5 days
Summary of the method: as §2

HELA CERVIX
area under dose-response curve [1]: 3.79 | area under dose-response curve (CANERTINIB [2]): 3.11 | area under dose-response curve (MDV3100 [3]): 3.16 | area under dose-response curve (AFATINIB [4]): 3.69 | area under dose-response curve (SAPACITABINE [5]): 2.94 | area under dose-response curve (SNX-5422 [6]): 2.79 | area under dose-response curve (BI-2536 [7]): 1 | area under dose-response curve (TIOGUANINE [8]): 3.36 | surviving fraction ([9]; 0.5 nM): 1.1 ± 0.028 | surviving fraction ([9]; 1 nM): 1.1 ± 0.059 | surviving fraction ([9]; 5 nM): 1.11 ± 0.045 | surviving fraction ([9]; 10 nM): 1.01 ± 0.013 | surviving fraction ([9]; 50 nM): 1.11 ± 0.082 | surviving fraction ([9]; 100 nM): 1.15 ± 0.035 | surviving fraction ([9]; 500 nM): 1.15 ± 0.038 | surviving fraction ([9]; 1000 nM): 1.09 ± 0.046 | surviving fraction (CANERTINIB [10]; 0.5 nM): 0.9167 ± 0.0022 | surviving fraction (CANERTINIB [10]; 1 nM): 0.8778 ± 0.0083 | surviving fraction (CANERTINIB [10]; 5 nM): 0.888 ± 0.024 | surviving fraction (CANERTINIB [10]; 10 nM): 0.865 ± 0.023 | surviving fraction (CANERTINIB [10]; 50 nM): 1.04 ± 0.084 | surviving fraction (CANERTINIB [10]; 100 nM): 0.979 ± 0.074 | surviving fraction (CANERTINIB [10]; 500 nM): 1.02 ± 0.074 | surviving fraction (CANERTINIB [10]; 1000 nM): 1 ± 0.039 | surviving fraction (MDV3100 [11]; 0.5 nM): 0.931 ± 0.035 | surviving fraction (MDV3100 [11]; 1 nM): 0.923 ± 0.0096 | surviving fraction (MDV3100 [11]; 5 nM): 0.929 ± 0.023 | surviving fraction (MDV3100 [11]; 10 nM): 0.888 ± 0.036 | surviving fraction (MDV3100 [11]; 50 nM): 0.999 ± 0.034 | surviving fraction (MDV3100 [11]; 100 nM): 1.02 ± 0.065 | surviving fraction (MDV3100 [11]; 500 nM): 1.08 ± 0.069 | surviving fraction (MDV3100 [11]; 1000 nM): 1.03 ± 0.047 | surviving fraction (AFATINIB [12]; 0.5 nM): 1.08 ± 0.041 | surviving fraction (AFATINIB [12]; 1 nM): 1.09 ± 0.049 | surviving fraction (AFATINIB [12]; 5 nM): 1.06 ± 0.082 | surviving fraction (AFATINIB [12]; 10 nM): 1.02 ± 0.022 | surviving fraction (AFATINIB [12]; 50 nM): 1.19 ± 0.028 | surviving fraction (AFATINIB [12]; 100 nM): 1.2 ± 0.018 | surviving fraction (AFATINIB [12]; 500 nM): 1.22 ± 0.075 | surviving fraction (AFATINIB [12]; 1000 nM): 1.1 ± 0.045 | surviving fraction (SAPACITABINE [13]; 0.5 nM): 0.847 ± 0.031 | surviving fraction (SAPACITABINE [13]; 1 nM): 0.843 ± 0.033 | surviving fraction (SAPACITABINE [13]; 5 nM): 0.837 ± 0.027 | surviving fraction (SAPACITABINE [13]; 10 nM): 0.819 ± 0.018 | surviving fraction (SAPACITABINE [13]; 50 nM): 0.954 ± 0.064 | surviving fraction (SAPACITABINE [13]; 100 nM): 1.02 ± 0.013 | surviving fraction (SAPACITABINE [13]; 500 nM): 0.826 ± 0.066 | surviving fraction (SAPACITABINE [13]; 1000 nM): 0.794 ± 0.035 | surviving fraction (SNX-5422 [14]; 0.5 nM): 1.08 ± 0.049 | surviving fraction (SNX-5422 [14]; 1 nM): 1.1 ± 0.031 | surviving fraction (SNX-5422 [14]; 5 nM): 1.09 ± 0.071 | surviving fraction (SNX-5422 [14]; 10 nM): 1.03 ± 0.028 | surviving fraction (SNX-5422 [14]; 50 nM): 1.2 ± 0.016 | surviving fraction (SNX-5422 [14]; 100 nM): 0.672 ± 0.081 | surviving fraction (SNX-5422 [14]; 500 nM): 0.228 ± 0.028 | surviving fraction (SNX-5422 [14]; 1000 nM): 0.113 ± 0.016 | surviving fraction (BI-2536 [15]; 0.5 nM): 1.05 ± 0.05 | surviving fraction (BI-2536 [15]; 1 nM): 1.048 ± 0.0063 | surviving fraction (BI-2536 [15]; 5 nM): 0.243 ± 0.048 | surviving fraction (BI-2536 [15]; 10 nM): 0.033 ± 0.00087 | surviving fraction (BI-2536 [15]; 50 nM): 0.0492 ± 0.0016 | surviving fraction (BI-2536 [15]; 100 nM): 0.0475 ± 0.0049 | surviving fraction (BI-2536 [15]; 500 nM): 0.11 ± 0.0041 | surviving fraction (BI-2536 [15]; 1000 nM): 0.133 ± 0.013 | surviving fraction (TIOGUANINE [16]; 0.5 nM): 0.998 ± 0.074 | surviving fraction (TIOGUANINE [16]; 1 nM): 1.03 ± 0.053 | surviving fraction (TIOGUANINE [16]; 5 nM): 0.994 ± 0.015 | surviving fraction (TIOGUANINE [16]; 10 nM): 0.997 ± 0.055 | surviving fraction (TIOGUANINE [16]; 50 nM): 1.06 ± 0.024 | surviving fraction (TIOGUANINE [16]; 100 nM): 1.14 ± 0.019 | surviving fraction (TIOGUANINE [16]; 500 nM): 1.14 ± 0.059 | surviving fraction (TIOGUANINE [16]; 1000 nM): 1.21 ± 0.056
